From US11053239B2, “Compounds as BLC-2-selective apoptosis-inducing agents” (Fochon Pharmaceuticals, Ltd., priority 2017, dated 2021)

What was measured:
[1] = system: RS4; 11 cells; test: Cell proliferation assay (MTS), RS4; 11 cells; format: cell-based; details: Homo sapiens, RS4-11, 72 h, RS4; 11 (ATCC CRL-1873) cell proliferation, 30000 cells/well, 72 h, MTS; mechanism-based readout of Bcl-2 inhibition; read-out: RS4; 11 IC50
Source text: (§1) MTS testing kit was purchased from Promega. The RPMI-1640, Fetal bovine serum and Penicillin-Streptomycin were purchased from Gibco. Dimethyl sulfoxide (DMSO) was purchased from Sigma.
(§2) To investigate whether a compound is able to inhibit the activity of Bcl-2 in cells, a mechanism-based assay using DOHH2 (DSMZ No.® ACC 47) and RS4; 11 (ATCC® CRL-1873™) cell was developed. In this assay, inhibition of Bcl-2 was detected by the inhibition of DOHH2 and RS4; 11 cells proliferation. DOHH2 and RS4; 11 cells were cultured in culture flasks to 40-80% confluence in RPMI-1640 plus 10% fetal bovine serum. Cells were collected and plated onto 96-well plates at desired cell density (DOHH2: 5000 cells/well; RS4; 11: 30000 cells/well). Plates were incubated overnight at 37° C., with 5% CO2 to adhere. Compounds were added to the plates, and the final compound concentrations were 10000, 3333, 1111, […], 124, 41, 14, 4.6 and 1.5 nM. Plates plated with DOHH2 or RS4; 11 cells were placed at 37° C., with 5% CO2 for 120 h (DOHH2) or 72 h (RS4; 11) respectively. 20 μl MTS/100 μl medium mixture solution were added to each well and incubate the plates for exactly 2 hours. The reaction was stopped by adding 25 μl 10% SDS per well. Measure absorbance at 490 nm and 650 nm (reference wavelength). ICso was calculated using GraphPad Prism 5.0.

[2] = system: DOHH2 cells; test: Cell proliferation assay (MTS), DOHH2 cells; format: cell-based; details: Homo sapiens, DOHH-2, 120 h, DOHH2 (DSMZ ACC 47) cell proliferation, 5000 cells/well, 120 h, MTS; mechanism-based readout of Bcl-2 inhibition; read-out: DOHH2 IC50
Source text: as §1, §2

Row | IC50 [1] [nM] | SMILES | IC50 [2] [nM]
1 | 11 | CC(C)C(=O)N=S1(=O)CCN(C[C@H](C)Nc2ccc(S(=O)(=O)NC(=O)c3ccc(N4CCN(CC5=C(c6ccc(Cl)cc6)CC(C)(C)CC5)CC4)cc3Oc3cnc4[nH]ccc4c3)cc2[N+](=O)[O-])CC1 [Example 66, (S)-2-((1H-pyrrolo[2,3-b]pyridin-5-yl)oxy)-4-(4-((4′-chloro-5,5-dimethyl-3,4,5,6-tetrahydro-[1,1′-biphenyl]-2-yl)methyl)piperazin-1-yl)-N-((4-((1-(1-(isobutyrylimino)-1-oxido-1λ^6-thiomorpholino)propan-2-yl)amino)-3-nitrophenyl)sulfonyl) benzamide] | 23
2 | 160 | CC(Nc1ccc(S(=O)(=O)NC(=O)c2ccc(N3CCN(CC4=C(c5ccc(Cl)cc5)CC(C)(C)CC4)CC3)cc2Oc2cnc3[nH]ccc3c2)cc1[N+](=O)[O-])C1CCS(=O)(=NC2CC2)CC1 (stereo not drawn) [Example 62, 2-((1H-pyrrolo[2,3-b]pyridin-5-yl)oxy)-4-(4-((4′-chloro-5,5-dimethyl-3,4,5,6-tetrahydro-[1,1′-biphenyl]-2-yl)methyl)piperazin-1-yl)-N-((4-((1-(1-(cyclopropylimino)-1-oxidohexahydro-1λ^6-thiopyran-4-yl)ethyl)amino)-3-nitrophenyl)sulfonyl) benzamide] | –
3 | 165 | CC1(C)CCC(CN2CCN(c3ccc(C(=O)NS(=O)(=O)c4ccc(NCCN5CCS(=O)(=NC(=O)C6CC6)CC5)c([N+](=O)[O-])c4)c(Oc4cnc5[nH]ccc5c4)c3)CC2)=C(c2ccc(Cl)cc2)C1 [Example 69, 2-((1H-pyrrolo[2,3-b]pyridin-5-yl)oxy)-4-(4-((4′-chloro-5,5-dimethyl-3,4,5,6-tetrahydro-[1,1′-biphenyl]-2-yl)methyl)piperazin-1-yl)-N-((4-((2-(1-((cyclopropanecarbonyl)imino)-1-oxido-1λ^6-thiomorpholino)ethyl)amino)-3-nitrophenyl)sulfonyl) benzamide] | –
4 | 258 | CC1(C)CCC(CN2CCN(c3ccc(C(=O)NS(=O)(=O)c4ccc(NCCN5CCS(=O)(=NS(C)(=O)=O)CC5)c([N+](=O)[O-])c4)c(Oc4cnc5[nH]ccc5c4)c3)CC2)=C(c2ccc(Cl)cc2)C1 [Example 71, 2-((1H-pyrrolo[2,3-b]pyridin-5-yl)oxy)-4-(4-((4′-chloro-5,5-dimethyl-3,4,5,6-tetrahydro-[1,1′-biphenyl]-2-yl)methyl)piperazin-1-yl)-N-((4-((2-(1-((methylsulfonyl)imino)-1-oxido-1λ^6-thiomorpholino)ethyl)amino)-3-nitrophenyl)sulfonyl)benzamide] | –
5 | 155 | CC1(C)CCC(CN2CCN(c3ccc(C(=O)NS(=O)(=O)c4ccc(NCCN5CCS(=N)(=O)CC5)c([N+](=O)[O-])c4)c(Oc4cnc5[nH]ccc5c4)c3)CC2)=C(c2ccc(Cl)cc2)C1 [Example 46, 2-((1H-pyrrolo[2,3-b]pyridin-5-yl)oxy)-4-(4-((4′-chloro-5,5-dimethyl-3,4,5,6-tetrahydro-[1,1′-biphenyl]-2-yl)methyl)piperazin-1-yl)-N-((4-((2-(1-imino-1-oxido-1λ^6-thiomorpholino)ethyl)amino)-3-nitrophenyl)sulfonyl) benzamide] | –
6 | 173 | C[C@@H](CN1CCS(=O)(=NC#N)CC1)Nc1ccc(S(=O)(=O)NC(=O)c2ccc(N3CCN(CC4=C(c5ccc(Cl)cc5)CC(C)(C)CC4)CC3)cc2Oc2cnc3[nH]ccc3c2)cc1S(=O)(=O)C(F)(F)F [Example 48, (S)-2-((1H-pyrrolo[2,3-b]pyridin-5-yl)oxy)-4-(4-((4′-chloro-5,5-dimethyl-3,4,5,6-tetrahydro-[1,1′-biphenyl]-2-yl)methyl)piperazin-1-yl)-N-((4-((1-(1-(cyanoimino)-1-oxido-1λ^6-thiomorpholino)propan-2-yl)amino)-3-((trifluoromethyl)sulfonyl)phenyl)sulfonyl)benzamide] | –

The remaining lines, values behind:

Row | SMILES | IC50 [1] [nM] | IC50 [2] [nM]
7 | CC(Nc1ccc(S(=O)(=O)NC(=O)c2ccc(N3CCN(CC4=C(c5ccc(Cl)cc5)CC(C)(C)CC4)CC3)cc2Oc2cnc3[nH]ccc3c2)cc1[N+](=O)[O-])C1CCS(=O)(=NC#N)CC1 (stereo not drawn) [Example 32, 2-((1H-pyrrolo[2,3-b]pyridin-5-yl)oxy)-4-(4-((4′-chloro-5,5-dimethyl-3,4,5,6-tetrahydro-[1,1′-biphenyl]-2-yl)methyl)piperazin-1-yl)-N-((4-((1-(1-(cyanoimino)-1-oxidohexahydro-1λ^6-thiopyran-4-yl)ethyl)amino)-3-nitrophenyl)sulfonyl)benzamide] | 438 | –
8 | CC(=O)N=S1(=O)CCC(CNc2ccc(S(=O)(=O)NC(=O)c3ccc(N4CCN(CC5=C(c6ccc(Cl)cc6)CC(C)(C)CC5)CC4)cc3Oc3cnc4[nH]ccc4c3)cc2[N+](=O)[O-])CC1 (stereo not drawn) [Example 31, 2-((1H-pyrrolo[2,3-b]pyridin-5-yl)oxy)-N-((4-(((1-(acetylimino)-1-oxidohexahydro-1λ^6-thiopyran-4-yl)methyl)amino)-3-nitrophenyl)sulfonyl)-4-(4-((4′-chloro-5,5-dimethyl-3,4,5,6-tetrahydro-[1,1′-biphenyl]-2-yl)methyl)piperazin-1-yl)benzamide] | 135 | –
9 | CC1(C)CCC(CN2CCN(c3ccc(C(=O)NS(=O)(=O)c4ccc(NCC(N5CCP(C)(=O)CC5)C(F)(F)F)c([N+](=O)[O-])c4)c(Oc4cnc5[nH]ccc5c4)c3)CC2)=C(c2ccc(Cl)cc2)C1 (stereo not drawn) [Example 14, 2-((1H-pyrrolo[2,3-b]pyridin-5-yl)oxy)-4-(4-((4′-chloro-5,5-dimethyl-3,4,5,6-tetrahydro-[1,1′-biphenyl]-2-yl)methyl)piperazin-1-yl)-N-((3-nitro-4-((3,3,3-trifluoro-2-(4-methyl-4-oxido-1,4-azaphosphinan-1-yl)propyl)amino)phenyl)sulfonyl) benzamide] | 520 | –
10 | CN=S1(=O)CCN(CCNc2ccc(S(=O)(=O)NC(=O)c3ccc(N4CCN(CC5=C(c6ccc(Cl)cc6)CC(C)(C)CC5)CC4)cc3Oc3cnc4[nH]ccc4c3)cc2[N+](=O)[O-])CC1 [Example 33, 2-((1H-pyrrolo[2,3-b]pyridin-5-yl)oxy)-4-(4-((4′-chloro-5,5-dimethyl-3,4,5,6-tetrahydro-[1,1′-biphenyl]-2-yl)methyl)piperazin-1-yl)-N-((4-((2-(1-(methylimino)-1-oxido-1λ^6-thiomorpholino)ethyl)amino)-3-nitrophenyl)sulfonyl) benzamide] | 101 | –
11 | CC1(C)CCC(CN2CCN(c3ccc(C(=O)NS(=O)(=O)c4ccc(NCCN5CCS(=O)(=NC#N)CC5)c([N+](=O)[O-])c4)c(Oc4cnc5[nH]ccc5c4)c3)CC2)=C(c2ccc(Cl)cc2)C1 [Example 36, 2-((1H-pyrrolo[2,3-b]pyridin-5-yl)oxy)-4-(4-((4′-chloro-5,5-dimethyl-3,4,5,6-tetrahydro-[1,1′-biphenyl]-2-yl)methyl)piperazin-1-yl)-N-((4-((2-(1-(cyanoimino)-1-oxido-1λ^6-thiomorpholino)ethyl)amino)-3-nitrophenyl)sulfonyl) benzamide] | 232 | –
12 | CC1(C)CCC(CN2CCN(c3ccc(C(=O)NS(=O)(=O)c4ccc(NCC5CCS(=N)(=O)CC5)c([N+](=O)[O-])c4)c(Oc4cnc5[nH]ccc5c4)c3)CC2)=C(c2ccc(Cl)cc2)C1 (stereo not drawn) [Example 28, 2-((1H-pyrrolo[2,3-b]pyridin-5-yl)oxy)-4-(4-((4′-chloro-5,5-dimethyl-3,4,5,6-tetrahydro-[1,1′-biphenyl]-2-yl)methyl)piperazin-1-yl)-N-((4-(((1-imino-1-oxidohexahydro-1λ^6-thiopyran-4-yl)methyl)amino)-3-nitrophenyl)sulfonyl) benzamide] | 122 | –
13 | CN=S1(=O)CCC(CNc2ccc(S(=O)(=O)NC(=O)c3ccc(N4CCN(CC5=C(c6ccc(Cl)cc6)CC(C)(C)CC5)CC4)cc3Oc3cnc4[nH]ccc4c3)cc2[N+](=O)[O-])CC1 (stereo not drawn) [Example 29, 2-((1H-pyrrolo[2,3-b]pyridin-5-yl)oxy)-4-(4-((4′-chloro-5,5-dimethyl-3,4,5,6-tetrahydro-[1,1′-biphenyl]-2-yl)methyl)piperazin-1-yl)-N-((4-(((1-(methylimino)-1-oxidohexahydro-1λ^6-thiopyran-4-yl)methyl)amino)-3-nitrophenyl)sulfonyl)benzamide] | 323 | –
14 | CC(CNc1ccc(S(=O)(=O)NC(=O)c2ccc(N3CCN(CC4=C(c5ccc(Cl)cc5)CC(C)(C)CC4)CC3)cc2Oc2cnc3[nH]ccc3c2)cc1[N+](=O)[O-])N1CCP(C)(=O)CC1 (stereo not drawn) [Example 10, 2-((1H-pyrrolo[2,3-b]pyridin-5-yl)oxy)-4-(4-((4′-chloro-5,5-dimethyl-3,4,5,6-tetrahydro-[1,1′-biphenyl]-2-yl)methyl)piperazin-1-yl)-N-((4-((2-(4-methyl-4-oxido-1,4-azaphosphinan-1-yl)propyl)amino)-3-nitrophenyl)sulfonyl)benzamide] | 133 | –
